Laboratory results published in patent US20230076310A1, “COMPOSITION USING NOVEL LACTOBACILLUS PLANTARUM KC3 STRAIN FOR PREVENTION OR TREATMENT OF IMMUNE IMPAIRMENT, RESPIRATORY INFLAMMATORY DISEASE, ALLERGY, AND ASTHMA AND USE THEREOF” (KT&G CORPORATION, priority 2020, published 2023).
Bridge positions count the residues as written; N and C are the ends. Square brackets hold non-standard residues; d marks the D form. Peptide text beside a SMILES is read from it. * marks the point of attachment. Ileψ(thiazoline)Cys = CC[C@H](C)[C@H](N)C1=N[C@H](C(=O)*)CS1; dOrn = NCCC[C@@H](N)C(=O)O

tested on: croton oil-induced mouse ear edema; assay: Croton oil-induced mouse ear edema test; format: in vivo, ICR mice; settings: 10 mg/kg BW oral; about 4 hours after 2.5% croton oil
Method: To confirm anti-inflammatory effect of the probiotic lactic acid bacteria (Lactobacillus plantarum KC3, KC3) on ear edema, an experiment was performed according to the croton oil-induced mouse ear edema method by applying the method described in the document (Dong Wook Kim, Kun Ho Son, Hyeun Wook Chang, KiHwan Bae and Sam Sik Kang, Arch Pharm Res., 2003, 3, pp 232-236).
To evaluate anti-inflammatory activity of the samples of the Example above, a croton oil-induced mouse ear edema test was carried out, and results thereof were obtained by measuring the ear thickness of the samples as shown in Table 8. […]
About 1 hour after administration, 2.5% croton oil (C0421 available from TCI Company, […]) dissolved in acetone was applied evenly to the inside and outside of the right ear of each mice to induce ear edema. […] Then, the degree of edema in the ears of the mice was measured according to variations in speed by measuring the thickness of both ears using a thickness gauge (Digimatic thickness gauge, 547-301, Mitutoyo, Japan). Here, based on the degree of and the inhibition rate (%) was calculated based on the degree of edema of the mice in the negative control group (0.5% sodium carboxymethyl cellulose (CMC), Sigma-Aldrich 419273), inhibition rates (%) were calculated, and results thereof are shown in Table 8 below.

Row | Molecule | Inhibition rate of ear edema (% of control)
1 | COc1ccc2c(c1)c(CC(=O)O)c(C)n2C(=O)c1ccc(Cl)cc1 [Indomethacin] | 25.6 ± 2.2 % of control

same assay, conditions: 10 mg/kg BW oral; about 4 hours after 2.5% croton oil; edema control 0.806 ± 0.068

Row | Molecule | Thickness (ear)
2 | COc1ccc2c(c1)c(CC(=O)O)c(C)n2C(=O)c1ccc(Cl)cc1 [Indomethacin] | 0.684 ± 0.054

tested on: Lactobacillus plantarum KC3; assay: Antibiotics resistance experiment (antibiotic strips on LSM solid medium); format: cell-based; settings: antibiotic strip on KC3 lawn, 37° C. for 24 hours
Method: In order to confirm antibiotics resistance level of the new lactic acid bacteria from the of the Lactobacillus plantarum KC3 the present disclosure, an experiment was performed as follows by applying the method described in the document ([1] Mathur, S. and R. Singh, Antibiotic resistance in food lactic acid bacteria—A review. Int. J. Food Microbiol 2005 105: 281-295); [2] European Food Safety Authority, Guidance on the assessment of bacterial susceptibility to antimicrobials of human and veterinary importance: EFSA Panel on Additives and Products or Substances used in Animal Feed (FEEDAP). The EFSA Journal 2012 2740:1-10. doi:10.2903/j.efsa.2012.2740).
To measure the antibiotics resistance level of the strain, an MIC test was carried out. Lactic acid bacteria that were inoculated into an MRS medium (DF0881-17-5, Difco) and cultured at 37° C. for 18 hours were spread on an LSM solid medium (90% iso-sensitest broth (CM0473, Oxoid), 10% MRS medium (DF0881-17-5, Difco), and 1.5% agar (214010, Difco)). Strips for each type of antibiotics, such as Amikacin (92018, Liofilchem srl), Gentamycin (92009, Liofilchem srl), Kanamycin (92034, Liofilchem srl), Streptomycin (92112, Liofilchem srl), Penicillin-G (92102, Liofilchem srl), Oxacillin (92015, Liofilchem srl), Ampicillin (920030, Liofilchem srl), Bacitracin (92019, Liofilchem srl), Rifampicin (92001, Liofilchem srl), Polymyxin B (92004, Liofilchem srl), Chloramphenico I (92075, Liofilchem srl), Vancomycin (92057, Liofilchem srl), and the like, were put on the medium, and the bacteria were grown at 37° C. for 24 hours.
In Table 4, R indicates resistance and represents that the size of an inhibition zone is about 0 mm; IS indicates medium resistance and represents that the size of an inhibition zone is in a range of about 1 mm to about 5 mm; and S indicates […] and represents that the size of an inhibition zone is greater than about 5 mm.

Row | Molecule | Antibiotic resistance (class) | Antibiotic resistance, size of inhibition zone
3 | NCC[C@H](O)C(=O)N[C@@H]1C[C@H](N)[C@@H](O[C@H]2O[C@H](CN)[C@@H](O)[C@H](O)[C@H]2O)[C@H](O)[C@H]1O[C@H]1O[C@H](CO)[C@@H](O)[C@H](N)[C@H]1O [Amikacin] | IS (IS indicates medium resistance and represents that the size of an inhibition zone is in a range of about 1 mm to about 5 mm) | (1 mm)
4 | CC1(C)S[C@@H]2[C@H](NC(=O)[C@H](N)c3ccccc3)C(=O)N2[C@H]1C(=O)O [Ampicillin] | S (S indicates resistance and represents that the size of an inhibition zone is greater than about 5 mm) | (14 mm)
5 | CC[C@H](C)[C@H](N)C1=N[C@H](C(=O)N[C@@H](CC(C)C)C(=O)N[C@H](CCC(=O)O)C(=O)N[C@H](C(=O)N[C@H]2CCCCNC(=O)[C@H](CC(N)=O)NC(=O)[C@@H](CC(=O)O)NC(=O)[C@H](Cc3cnc[nH]3)NC(=O)[C@@H](Cc3ccccc3)NC(=O)[C@H]([C@@H](C)CC)NC(=O)[C@@H](CCCN)NC2=O)[C@@H](C)CC)CS1 [Bacitracin] ({Ileψ(thiazoline)Cys}-L[dE]IK[dOrn]I[dF]H[dD]N; lactam 4-C) | S (S indicates resistance and represents that the size of an inhibition zone is greater than about 5 mm) | (7 mm)
6 | O=C(N[C@H](CO)[C@H](O)c1ccc([N+](=O)[O-])cc1)C(Cl)Cl [Chloramphenicol] | S (S indicates resistance and represents that the size of an inhibition zone is greater than about 5 mm) | (10 mm)
7 | NC[C@H]1O[C@H](O[C@H]2[C@H](O)[C@@H](O[C@H]3O[C@H](CO)[C@@H](O)[C@H](N)[C@H]3O)[C@H](N)C[C@@H]2N)[C@H](O)[C@@H](O)[C@@H]1O [Kanamycin] | R (R indicates resistance and represents that the size of an inhibition zone is about 0 mm) | (0 mm)
8 | CCC[C@@H]1C[C@@H](C(=O)N[C@@H]([C@H]2O[C@H](SC)[C@H](O)[C@@H](O)[C@H]2O)[C@@H](C)O)N(C)C1 [Lincomycin] | S (S indicates resistance and represents that the size of an inhibition zone is greater than about 5 mm) | (10 mm)
9 | CO[C@@H]1[C@@H](OC(N)=O)[C@@H](O)[C@H](Oc2ccc3c(O)c(NC(=O)c4ccc(O)c(CC=C(C)C)c4)c(=O)oc3c2C)OC1(C)C [Novabiocin] | S (S indicates resistance and represents that the size of an inhibition zone is greater than about 5 mm) | (7 mm)
10 | Cc1onc(-c2ccccc2)c1C(=O)N[C@@H]1C(=O)N2[C@@H]1SC(C)(C)[C@@H]2C(=O)O [Oxacillin] | IS (IS indicates medium resistance and represents that the size of an inhibition zone is in a range of about 1 mm to about 5 mm) | (2 mm)
11 | CC1(C)S[C@@H]2[C@H](NC(=O)Cc3ccccc3)C(=O)N2[C@H]1C(=O)O [Penicillin-G] | IS (IS indicates medium resistance and represents that the size of an inhibition zone is in a range of about 1 mm to about 5 mm) | (5 mm)
12 | CO[C@H]1/C=C/O[C@@]2(C)Oc3c(C)c(O)c4c(O)c(c(/C=N/N5CCN(C)CC5)c(O)c4c3C2=O)NC(=O)/C(C)=C\C=C\[C@H](C)[C@H](O)[C@@H](C)[C@@H](O)[C@@H](C)[C@H](OC(C)=O)[C@@H]1C [Rifampicin] | S (S indicates resistance and represents that the size of an inhibition zone is greater than about 5 mm) | (7 mm)
13 | [H]/N=C(/N)N[C@H]1[C@H](O)[C@@H](O)[C@H](O[C@@H]2O[C@@H](C)[C@](O)(C=O)[C@H]2O[C@@H]2O[C@@H](CO)[C@H](O)[C@@H](O)[C@@H]2NC)[C@@H](N/C(N)=N\[H])[C@@H]1O [Streptomycin] | R (R indicates resistance and represents that the size of an inhibition zone is about 0 mm) | (0 mm)
14 | CN[C@H](CC(C)C)C(=O)N[C@H]1C(=O)N[C@@H](CC(N)=O)C(=O)N[C@H]2C(=O)N[C@H]3C(=O)N[C@H](C(=O)N[C@H](C(=O)O)c4cc(O)cc(O)c4-c4cc3ccc4O)[C@H](O)c3ccc(c(Cl)c3)Oc3cc2cc(c3O[C@@H]2O[C@H](CO)[C@@H](O)[C@H](O)[C@H]2O[C@H]2C[C@](C)(N)[C@H](O)[C@H](C)O2)Oc2ccc(cc2Cl)[C@H]1O [Vancomycin] | R (R indicates resistance and represents that the size of an inhibition zone is about 0 mm) | (0 mm)
15 | Gentamycin | IS (IS indicates medium resistance and represents that the size of an inhibition zone is in a range of about 1 mm to about 5 mm) | (3 mm)
16 | Neomycin | IS (IS indicates medium resistance and represents that the size of an inhibition zone is in a range of about 1 mm to about 5 mm) | (3 mm)
17 | Polymyxin B | R (R indicates resistance and represents that the size of an inhibition zone is about 0 mm) | (0 mm)
